# Data taken from US20200055871A1, “ACTIVATORS OF THE RETINOIC ACID INDUCIBLE GENE "RIG-I" PATHWAY AND METHODS OF USE THEREOF” (Kineta Immuno-Oncology LLC, priority 2018, published 2020).
# Like-named read-outs stand apart in the source and are kept apart here.
# Tests used:
# [1] = test system: murine CT26 colon carcinoma cells; assay: RIG-I dependent CXCL10 secretion by CT26 cells (ELISA); assay type: cell-based; settings: supernatant 24 h after stimulation
# Protocol: (§1) The CT26 murine colon carcinoma cell line (ATCC) was used to evaluate the induction of CXCL10 secretion. CXCL10 is an important chemokine in tumor immune biology that recruits tumor-specific T cells to the tumor. To confirm that compound-mediated CXCL10 production was RIG-I specific, RIG-1 deficient CT2-RIG-I−/−cells were generated by Kineta Inc. using CRISPR technology.
# (§2) CT26 cells were seeded at a density of 1×10^4 cells per well on a 96-well tissue culture plate in 100 μL of cell culture and cells were incubated at 37° C. and 5% CO2 for 24 hr. Next, CT26 cells were treated with compounds at the indicated concentrations. CXCL10 was quantified by ELISA from supernatants taken 24 h after compound stimulation by use of the CXCL10 Duo Set ELISA kit (Cat #DY466, R&D, Minneapolis, Minn., USA) according to the manufacturer's instructions.
# (§3) CXCL10 secretion by CT26 cells in response to compounds (in an amount of 5 to 20 μM) of the present disclosure is shown in Table 8. The compound-induced CXCL10 production was RIG-I dependent, since none of the compounds mediated CXCL10 secretion in RIG-I deficient CT26 RIG-I−/−cells (about 0 pg/mL of CXCL10, or below the level of quantitation). The compounds (10 μM, *20 μM, **5 μM) are indicated in the table as follows: “≠” indicates less than 100 pg/mL; “+” indicates 100-199 pg/mL; “++” indicates 200-399 pg/mL; “+++” indicates 400-799 pg/mL; “++++” indicates 800 to 1599 pg/mL; “+++++” indicates greater than or equal to 1600 pg/ml.
# [2] = test system: RIG-I deficient CT26 RIG-I−/− cells; assay: CXCL10 secretion by RIG-I deficient CT26 RIG-I−/− cells (ELISA); assay type: cell-based, murine; settings: compound 5 to 20 μM, 24 h
# Protocol: as §1, §2, §3
# [3] = test system: IRF3-deficient THP1-Lucia™ ISG IRF3−/− cells; assay: THP1-Lucia ISG IRF3−/− reporter assay (IRF3-deficient control cells); assay type: cell-based, human; settings: compound 5 to 20 μM, 18 h
# Protocol: (§4) The promoter was comprised of five IFN-stimulated response elements (ISRE) fused to an ISG54 minimal promoter which is unresponsive to NF-kB or AP-1 pathways. […] The IRF3-deficient THP1-Lucia™ ISG IRF3−/−reporter cell line was generated by CRISPR technology from the parent THP1-Lucia™ ISG reporter cell line.
# (§5) THP1-Lucia™ ISG cells and IRF3-deficient THP1-Lucia™ ISG IRF3−/−cells were differentiated with PMA (100 ng/ml) and stimulated with compounds at the indicated concentrations (5 to 20 μM), positive control, or not treated (background). Luciferase secretion was quantified using the QUANTI-Luc luciferase assay system (InvivoGen) 18 h after stimulation. Data are shown as fold increase luciferase activity over background in Table 7 and represent the IRF3-dependent ISG54 promoter activity by the THP1-Lucia™ ISG cells in response to compounds. […] The fold increase of compounds (10 μM, *20 μM, **5 μM) induced IRF3 dependent luciferase activity is indicated as follows: “≠” indicates less than 2.4 fold increase; “+” indicates a 2.4-4.9 fold increase; “++” indicates a 5-9.9 fold increase; “+++” indicates a 10-19 fold increase; “++++” indicates a 20-39 fold increase; “+++++” indicates greater than or equal to 40 fold increase.
# [4] = test system: IRF3 signaling pathway in THP1-Lucia™ ISG cells; assay: THP1-Lucia ISG reporter assay: induction of IRF3-dependent gene expression (secreted luciferase); assay type: cell-based, human; settings: for fold induction at 10 µM: Homo sapiens, THP1-Lucia ISG, read-out: fold increase of IRF3-dependent luciferase activity over background, THP1 ISG
# Protocol: The compounds were evaluated in the THP1-Lucia™ ISG (interferon stimulated genes) reporter assay to determine if the compounds activate the IRF3 signaling pathway. The THP1-Lucia™ cells (InvivoGen) express the secreted luciferase (Lucia) reporter gene under the control of an IRF-inducible promoter. The reporter cell line was developed from human monocytic leukemia THP-1 cells.
# as §4, §5
# [5] = 10 μM compound, PMA-differentiated cells, 18 h after stimulation
Compound,"CXCL10 secretion, CT26 ([1]; 10 μM compound)","CXCL10 secretion, CT26 RIG-I−/− [2]","fold increase of luciferase activity, THP1 ISG IRF3−/− [3]","fold increase of IRF3-dependent luciferase activity over background, THP1 ISG [4, 5]","CXCL10 secretion, CT26 ([1]; 20 μM compound (*))","fold induction at 10 µM [4, 5]",fold induction at 10 µM ([4]; 18 h)
"N-(3-bromophenyl)-11-methyl-3,10-dithia-5,12-diazatricyclo[7.3.0.0^2,^6]dodeca-1,4,6,8,11-pentaene-4-carboxamide [Example 10]",+++ (400-799 pg/mL),−,− (less than 0.5 fold above baseline was considered below the level of quantitation),+ (a 2.4-4.9 fold increase),,,
"O=C(Nc1cc2ccc3scnc3c2o1)c1cc2ccccc2cc1OCCN1CCOCC1 [Example 57, 3-[2-(morpholin-4-yl)ethoxy]-N-{12-oxa-5-thia-3-azatricyclo [7.3.0.0^2,^6]dodeca-1,3,6,8,10-pentaen-11-yl}naphthalene-2-carboxamide]",,−,− (less than 0.5 fold above baseline was considered below the level of quantitation),+++ (a 10-19 fold increase),++* (200-399 pg/mL),,
"O=C(Nc1nc2ccc3sccc3c2s1)c1cc2ccccc2cc1OCCCCN1CCOCC1 [Example 49, N-{3,10-dithia-5-azatricyclo[7.3.0.0^2,^6]dodeca-1,4,6,8,11-pentaen-4-yl}-3-[4-(morpholin-4-yl)butoxy]naphthalene-2-carboxamide]",++++ (800 to 1599 pg/mL),−,− (less than 0.5 fold above baseline was considered below the level of quantitation),+++ (a 10-19 fold increase),,,
"Cn1ccc2cc(OCCN3CCOCC3)c(C(=O)Nc3nc4ccc5scnc5c4s3)cc21 [Example 69, N-{3,10-dithia-5,12-diazatricyclo[7.3.0.0^2,^6]dodeca-1,4,6,8,11-pentaen-4-yl}-1-methyl-5-[2-(morpholin-4-yl)ethoxy]-1H-indole-6-carboxamide]",,−,− (less than 0.5 fold above baseline was considered below the level of quantitation),,,,
"O=C(Nc1cc2ccc3scnc3c2s1)c1cc2ccsc2cc1OCCN1CCOCC1 [Example 65, N-{5,12-dithia-3-azatricyclo[7.3.0.0^2,^6]dodeca-1,3,6,8,10-pentaen-11-yl}-6-[2-(morpholin-4-yl)ethoxy]-1-benzothiophene-5-carboxamide]",≠ (less than 100 pg/mL),,− (less than 0.5 fold above baseline was considered below the level of quantitation),+ (a 2.4-4.9 fold increase),,,
"6-[2-(morpholin-4-yl)ethoxy]-N-{4-oxo-5,12-dithia-3-azatricyclo[7.3.0.0^2,^6]dodeca-1,6,8,10-tetraen-11-yl}-1-benzothiophene-5-carboxamide [Example 70]",,−,− (less than 0.5 fold above baseline was considered below the level of quantitation),,,,
"COc1nc2c(ccc3cc(NC(=O)c4cc5ccsc5cc4OCCCCN4CCOCC4)sc32)s1 [Example 68, N-{4-methoxy-5,12-dithia-3-azatricyclo[7.3.0.0^2,^6]dodeca-1,3,6,8,10-pentaen-11-yl}-6-[4-(morpholin-4-yl)butoxy]-1-benzothiophene-5-carboxamide]",,−,− (less than 0.5 fold above baseline was considered below the level of quantitation),,,,
"COc1nc2c(ccc3nc(NC(=O)c4ccc5ccccc5c4)sc32)s1 [Example 22, N-{11-methoxy-3,10-dithia-5,12-diazatricyclo[7.3.0.0^2,^6]dodeca-1,4,6,8,11-pentaen-4-yl}naphthalene-2-carboxamide]",++ (200-399 pg/mL),−,,,,20 to 39,
"CCCCCOc1ccc(C(=O)Nc2nc3ccc4sc(C)nc4c3s2)cc1 [Example 5, N-{11-methyl-3,10-dithia-5,12-diazatricyclo[7.3.0.0^2,^6]dodeca-1,4,6,8,11-pentaen-4-yl}-4-(pentyloxy)benzamide]",,−,,,+* (100-199 pg/mL),5 to 9.9,
"O=C(Nc1nc2ccc3scnc3c2s1)c1ccc(Cl)c(C(F)(F)F)c1 [Example 7, 4-chloro-N-{3,10-dithia-5,12-diazatricyclo[7.3.0.0^2,^6]dodeca-1,4,6,8,11-pentaen-4-yl}-3-(trifluoromethyl)benzamide]",++++ (800 to 1599 pg/mL),−,,,,2.4 to 4.9,
"Cn1c(C(=O)Nc2nc3ccc4scnc4c3s2)cc2ccccc21 [Example 17, N-{3,10-dithia-5,12-diazatricyclo[7.3.0.0^2,^6]dodeca-1,4,6,8,11-pentaen-4-yl}-1-methyl-1H-indole-2-carboxamide]",++ (200-399 pg/mL),−,,,,10 to 19,
"O=C(Nc1nc2ccc3scnc3c2s1)c1cc2ccccc2cc1OCCN1CCNCC1 [Example 47, N-{3,10-Dithia-5,12-diazatricyclo[7.3.0.0^2,6]dodeca-1,4,6,8,11-pentaen-4-yl}-3-[2-(piperazin-1-yl)ethoxy]naphthalene-2-carboxamide]",+ (100-199 pg/mL),−,,,,2.4 to 4.9,
"O=C(Nc1nc2ccc3scnc3c2s1)c1cc2ccsc2cc1OCCCCN1CCOCC1 [Example 43, N-{3,10-dithia-5,12-diazatricyclo[7.3.0.0^2,^6]dodeca-1,4,6,8,11-pentaen-4-yl}-6-[4-(morpholin-4-yl)butoxy]-1-benzothiophene-5-carboxamide]",+++ (400-799 pg/mL),−,,,,10 to 19,
"O=C(Nc1nc2ccc3scnc3c2s1)c1ccc2c(c1)OCO2 [Example 4, N-{3,10-dithia-5,12-diazatricyclo[7.3.0.0^2,^6]dodeca-1,4,6,8,11-pentaen-4-yl}-2H-1,3-benzodioxole-5-carboxamide]",+++ (400-799 pg/mL),−,,,,,10 to 19
"N-{4-methoxy-5,12-dithia-3-azatricyclo[7.3.0.0^2,^6]dodeca-1,3,6,8,10-pentaen-11-yl}-6-[2-(morpholin-4-yl)ethoxy]-1-benzothiophene-5-carboxamide [Example 67]",,−,− (less than 0.5 fold above baseline was considered below the level of quantitation),,,,
"O=C(Nc1nc2ccc3scnc3c2s1)c1ccc2nsnc2c1 [Example 12, N-{3,10-dithia-5,12-diazatricyclo[7.3.0.0^2,^6]dodeca-1,4,6,8,11-pentaen-4-yl}-2,1,3-benzothiadiazole-5-carboxamide]",++++ (800 to 1599 pg/mL),−,,,,5 to 9.9,
